According to patent US7853319B2, “Method and system for detecting electrophysiological changes in pre-cancerous and cancerous tissue and epithelium” (Epi-Sci, LLC, priority 2005, dated 2010):
Read-outs that look alike come from different tables or passages of the source.

Assays:
[1] = test system: distal colon; details: administered over the same period (four weeks) as carcinogen; cited from earlier work
[2] = test system: histologically "normal" colonic epithelium; details: cited from earlier work
[3] = test system: apical K+ channels of premalignant human mucosa (distal colon); assay: Short circuit current of colonic mucosa ex vivo in Ussing chambers, premalignant mucosa; details: assuming complete block
Description: (§1) The potassium permeability of the apical membrane of human colonic mucosa (P^Ka) was determined in surgical specimens of controls and grossly normal-appearing mucosa obtained 10-30 cm proximal to colorectal adenocarcinomas. The mucosa was mounted in Ussing chambers and the basolateral membrane resistance and voltage were nullified by elevating the K^+ in the serosal bathing solution. The apical sodium (Na^+) conductance was blocked with 0.1 mM amiloride. This protocol reduces the equivalent circuit model of the epithelium to an apical membrane conductance and electromotive force in parallel with the paracellular pathway as has been verified by microelectrode studies. […] In cancer-bearing colon the reduction in Isc is to −65 μA/cm^2. The serosal bath was remained constant at 125 mM [K].
(§2) Because the voltage across the apical membrane is zero under these conditions and the paracellular pathway is nonselective, the P^Ka (apical potassium permeability) can be calculated using the Fick equation i.e., Isc=F·P^Ka·Δ[K] where F is the Faraday constant and Δ[K] is the concentration difference for K^+ across the epithelium. […] P^Ka could also be calculated for the change in Isc when the K^+ channels were blocked with TEA, assuming complete block.

[4] = test system: apical K+ channels of human colonic epithelium (normal colon); assay: Short circuit current of colonic mucosa ex vivo in Ussing chambers, normal colon (controls)
Description: as §1, §2

[5] = test system: breast epithelium; details: 20 μM luminal amiloride, cited from earlier work
[6] = test system: benign breast epithelial cells; assay: Cell membrane potential (ψ) with potentiometric fluorescent probe, benign cells; assay type: cell-based, human; details: estradiol added to the culture media; approximately −50 mV in its absence
Description: (§3) Measurements were made using a potentiometric fluorescent probe, and ratiometric measurements, which are calibrated using valinomycin and [K^+]-gradients. ψs were measured in the presence (closed circles) and absence (open circles) of estradiol (the active metabolite of estrogen). Each symbol is the mean measurement. The upper error bar is the standard error of the mean, and the lower error bar is the 95% confidence level for the observations. The addition of estrogen to cultured breast epithelial cells results in an instantaneous increase in ψ (data not shown) as well as the transepithelial potential see FIG. 8. Transepithelial potential (VT) of an epithelium is the sum of the apical (luminal) cell membrane potential (VA) and the basolateral (abluminal) cell membrane potential (VBL). Therefore VT=VA+VBL (changes in VA and/or VBL will therefore alter VT or transepithelial potential). […] Malignant and transformed cells have a ψ of between −31 and −35 mV in the absence of estradiol and […] when estradiol is present in the culture medium.

[7] = test system: Malignant and transformed cells (human breast epithelial cells); assay: Cell membrane potential (ψ) with potentiometric fluorescent probe, malignant and transformed cells; assay type: cell-based; details: estradiol present in the culture medium; −31 to −35 mV in its absence
Description: as §3

[8] = test system: breast tissue; assay: Electrophysiological response of breast tissue after sublingual 17-β-estradiol; assay type: in vivo, human; details: sublingual administration, 4 mg
Description: In one method of the present invention, estradiol is introduced directly into the duct or systemically following sublingual administration of 17-β-estradiol (4 mg). This agent produces a rapid response, which peaks at approximately 20 minutes. The electrophysiological response depends, in part, on the stage of the patient's menstrual cycle, as well as the condition of the breast tissue. Specifically, in normal breast tissue, a rise in TEP will occur during the follicular (or early) phase. In pre-cancerous or cancerous tissue, this response is abrogated.

[9] = test system: benign human breast epithelial cells; assay: Transepithelial potential of monolayers in modified Ussing chambers, benign epithelia; assay type: cell-based; details: then remains persistently elevated
Description: (§4) It should be noted that the instantaneous response, illustrated in FIG. 8, is greater in malignant epithelia, whereas the chronic or sustained exposure to estradiol results in a lower increase in TEP (transepithelial electropotential) in malignant cells. Concurrent measurement of surface electropotential and impedance allow the more accurate diagnosis of cancer. […] The cells were grown as monolayers on Millipore filters and grew to confluence in 7 to 10 days. The epithelia were then mounted in modified Ussing chambers and the TEP was measured using a voltage clamp. Increasing doses of estradiol between 0 and 0.8 μM were added (x-axis). The transepithelial potential was measured after each addition and the TEP was measured (y-axis). The different dose response is apparent for benign and malignant epithelia. Malignant epithelia have a lower TEP but undergo an instantaneous increase in TEP of approximately 9 mV (becomes more electronegative and reaches a level of <−6 mV) after exposure to only 0.1 μM estradiol and then depolarize to approximately −2 mV with increasing doses of estradiol up to about 0.5 μM.

[10] = test system: malignant human breast epithelial cells; assay: Transepithelial potential of monolayers in modified Ussing chambers, malignant epithelia; assay type: cell-based
Description: as §4

[11] = after exposure to 0.1 μM estradiol

## O=c1[nH]cc(F)c(=O)[nH]1 [5-fluorouracil]
[1]
  effect on transepithelial potential (VT): did not cause a reduction in VT

## CNNC [DMH, 1,2 dimethylhydrazine]
[2]; after 6 weeks of DMH treatment, from −74.9 mV
  VA (apical membrane voltage): −61.4 mV
[2]; by 20 weeks of DMH treatment
  VA (apical membrane voltage): −34 mV

## CC[N+](CC)(CC)CC [TEA]
[3]
  apical K+ permeability (P^Ka) calculated from change in Isc on TEA block: 3.8 ×10⁻⁶ cm/s
[4]; 30 mM mucosal TEA, 0.1 mM amiloride, elevated serosal K+, normal colon
  effect on short circuit current (Isc): abrupt increase in Isc
[4]; controls, assuming complete block
  apical K+ permeability (P^Ka) calculated from change in Isc on TEA block: 6.4 ×10⁻⁶ cm/s

## N=C(N)NC(=O)c1nc(Cl)c(N)nc1N [amiloride]
[5]; baseline −5.9±0.5 mV (mean±SEM)
  depolarization of the transepithelial potential (change): +3.1±0.5 mV
[5]
  increase in transepithelial resistance: 17%

## C[C@]12CC[C@@H]3c4ccc(O)cc4CC[C@H]3[C@@H]1CC[C@@H]2O [estradiol, 17-β-estradiol]
[6]
  cell membrane potential (ψ): ~−70 mV
[7]
  cell membrane potential (ψ): approximately 50 mV
[8]
  time to peak of electrophysiological response: approximately 20 minutes
[9]
  estradiol dose at which TEP response peaks: ~0.3 µM
[10]; [11]
  TEP level reached: < −6 mV
  instantaneous increase in TEP: approximately 9 mV
[10]; increasing doses of estradiol up to about 0.5 μM
  TEP after depolarization with increasing doses: approximately −2 mV
